Measured values taken from US20080199546A1, “Anti-resorptive and bone building dietary supplements and methods of use” (priority 2006, published 2008).

Experiments:
[1] = system: MMP9 (type IV collagenase); assay: MMP9 (type IV collagenase) protein expression, keratinocyte/fibroblast co-culture stimulated with IL-1B; format: cell-based; conditions: IL1B 10 ng/ml alone (stimulus); untreated = 1.0
Method: Keratinocytes and fibroblasts were co-cultured in DMEM containing 0.5% BSA. Co-cultures were exposed to various concentrations of punicalagins (ranging from 0.1%-10%) extracted from pomegranates. Specifically, the ability of the pomegranate extracts to inhibit type IV collagenase protein (matrix metalloproteinase-9/MMP9) expression at concentrations of 1.0 μg/ml, 10 μg/ml, and 100 μg/ml were tested. Following exposure to the pomegranate extracts, the co-culture cells were stimulated with 10 ng/ml of IL-1B for 18 hours. Following stimulation with IL-1B for 18 hours, and MMP9 concentration was determined in the media as shown below in Table 8.

[2] = system: RANK-L gene expression; assay: RANK-L gene expression (qPCR, IL-1b stimulated MG63 cells); format: cell-based, human; conditions: IL1B 3 ng/ml alone (stimulus)
Method: Punicalagin test samples are extracted from pomegranates, including from pomegranate peels, skins, fleshy fruit, and seeds using 100% DMSO at 100 mg/ml. Particulate matter in the extraction is not removed. The punicalagin test samples are diluted in MEM without phenol red (estrogenic) and 0.1% FBS to lower background signaling to ten times the final concentrations. Final DMSO concentrations are kept below 0.2% and are kept constant during treatments. DMSO solvent control is used in the untreated group.
MG63 cells (ATCC # […]), a human-derived osteosarcoma cell line, are plated at 200,000 cells per well in a 12 well plate with phenol red free MEM at 10% FBS. The next day the media is changed to phenol red free MEM at 0.1% FBS. The cells are incubated for four hours and then treated with punicalagin test samples at concentrations of 1, 10, and 100 μg/ml.
After four hours of treatment, IL-1b (Calbiochem (catalog # 407615), stock solution at 10 μg/ml, cat # 407615) are added to a final concentration of 3 ng/mL. […]
After 16 hours the cells are lysed and the RNA is extracted from the cells with the RNasy purification kit (Qiagen). RNA is reverse transcribed to cDNA and quantified by qPCR using 2-step qRT-PCR reagents (Invitrogen), and 4 μL of purified RNA. […]
RANK-L and GAPDH gene expression Ct data are obtained. RNA is quantified with adjustments for GAPDH expression. […]

[3] = system: BMP-2 promoter; assay: BMP2 promoter assay (luciferase reporter); format: cell-based, murine; conditions: summary of Table 1
[4] = system: RANK-L; assay: Production/release of RANK-L protein (ELISA, IL-1b stimulated MG-63 cells); format: cell-based; conditions: Homo sapiens, MG-63, 1 μg/ml
Method: Weigh between 150 to 250 mg of each ingredient into a 15 ml conial bottomed tube. […] For solvent control, mix 1.5 ml DMSO, 0.9 ml ethanol, and 0.6 ml water. Vortex thoroughly. Sonicate for 10 minute in water bath, room temperature. Vortex thoroughly again. Dilute ingredient stocks in fresh phenol red-free media. Human osteosarcoma cell line, MG-63 (ATCC# CRL-1427), is maintained in phenol-red containing MEM (as recommended by ATCC) at 37° C. and 5% CO2. Twenty-four hours prior to experimentation, 3×10^5 cells are seeded in 12-well plates in phenol-red free MEM. Spent medium is removed from wells and MG-63 cells (ATCC # CRL-1427) are pretreated with 1, 0.1, 0.01 μg/ml of each test ingredient or 30 ng/ml TGF-beta (+ control) for 4 hours at 37° C., 5% CO2. Stock solution of TGF-beta is 30 μg/ml (from R&D Systems, cat# 100-B-001). After pretreatment incubation period, […] IL-1b (Calbiochem (catalog # 407615), and stock solution at 10 μg/ml, cat # 407615) were added to the cell cultures for 18 hours at 37° C. Supernatant media from the treated and stimulated cells were removed and total RANK-L proteins measured using RANK-L ELISA (in triplicate) as described by manufacturer (from APOTECH, catalog # APO-54N-016-k101). The resulting protein quantity was compared to that of media (null) treated stimulated cells to determine percent decrease in total RANK-L protein.

Row | MMP9 expression (fold of untreated) [1] | Activation of the BMP-2 promoter (in words) [3] | Compound | RANK-L Expression (fold increase) [2] [fold increase] | inhibition at 1 µg/mL [4] [%]
1 | 1.65 |  | IL1B: IL-1b (Calbiochem), stimulus of RANK-L and MMP9 expression | 3.3 ± 0 | 
2 |  | most potent activators | O=c1c(O)c(-c2ccc(O)c(O)c2)oc2cc(O)cc(O)c12 [Q, Quercetin] |  | 
3 |  | most potent activators | CC(C)Oc1ccc2c(=O)c(-c3ccccc3)coc2c1 [I, 7-isopropoxy isoflavone] |  | 0.8 ± 0.3
